This is an account of results in patent US9409952B2, “Peptide-compound cyclization method” (Chugai Seiyaku Kabushiki Kaisha, priority 2011, dated 2016).

The nature of data set [1]: PAMPA (parallel artificial membrane permeability assay). Type of data set: in vitro ADME. Particulars: PAMPA. The gist of the method: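 Artificial membrane was 10% (w/v) egg lecithin plus 0.5% (w/v) cholesterol in dodecane on a PVDF filter. A 10 mM DMSO stock was added at 0.5% (v/v) to donor buffer (50 mM MOPSO, pH 6.5, 5.0% glycocholic acid). After 18 h at 37 °C, LC/MS or LC/UV gave donor and acceptor levels for Pe.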

A short description of data set [2]: Metabolic stability in human hepatic microsome. Type of data set: in vitro ADME. To be noted: microsomes.
Where [3] appears, read: membrane permeation rate (Pe), 50 mM MOPSO buffer pH 6.5 with 5.0% glycocholic acid, 37° C., 18 hours, read-out: iPAMPA Pe.
Where [4] appears, read: pH 7.4, human hepatic microsome, NADPH(+), read-out: CL NADPH(+).

Like-named read-outs stand apart in the source and are kept apart here. Starred links: 1 amine or outer side, 2 acyl side, 3 side chain; linkers in the order of their positions; H or OH if unused. Positions of bridges follow the written chain, without caps; N, C: chain ends. Non-standard residues stand in square brackets, D forms with d. Residues, ends and D or L forms follow the SMILES beside them. *: point of attachment. NMePhe(3-Cl) = CN[C@@H](Cc1cccc(Cl)c1)C(=O)O; NMeF = CN[C@@H](Cc1ccccc1)C(=O)O; NMeβAla = CN(CCC(=O)[*:2])[*:1]; NMeL = CN[C@@H](CC(C)C)C(=O)O; NMeA = CN[C@@H](C)C(=O)O; Piperidide = C1CCN(*)CC1; Sar = CNCC(=O)O

As to `CC[C@H](C)[C@H](NC(=O)[C@H](CC(C)C)N(C)C(=O)CN(C)C(=O)[C@H](C)N(C)C(=O)[C@H](Cc1ccccc1)N(C)C(=O)[C@@H]1CC(=O)N[C@H](C(C)C)C(=O)N[C@@H](C(C)C)C(=O)N[C@@H]([C@@H](C)O)C(=O)N[C@@H](CC(C)C)C(=O)N[C@@H](Cc2ccccc2)C(=O)N(C)[C@@H](CC(C)C)C(=O)N(C)[C@@H](Cc2cccc(Cl)c2)C(=O)N1)C(=O)N1CCCCC1` [DP-924] ([dV]VTLF[NMeL][NMePhe(3-Cl)]D[NMeF][NMeA][Sar][NMeL]I-Piperidide; lactam N-8), the Papp at 18 hours, 50 µM in data set [1] (setting [3]) was 0.1 ×10⁻⁶ cm/s. For the same molecule, the microsomal CLint at 1 uM in data set [2] (setting [4]) is 19 µL/min/mg.

For `CC[C@H](C)[C@H](NC(=O)[C@H](CC(C)C)NC(=O)[C@@H]1CCCN1C(=O)[C@H](CC(C)C)NC(=O)[C@H](CC(C)C)N(C)C(=O)[C@@H]1CC(=O)N[C@@H](Cc2ccccc2)C(=O)N[C@@H](CC(C)C)C(=O)N(C)[C@@H](CC(C)C)C(=O)N[C@@H]([C@@H](C)O)C(=O)N(C)[C@@H](Cc2cccc(Cl)c2)C(=O)N(C)[C@@H](C)C(=O)N(C)[C@@H](CC(C)C)C(=O)N1)C(=O)N1CCCCC1` [DP-925] (FL[NMeL]T[NMePhe(3-Cl)][NMeA][NMeL]D[NMeL]LPLI-Piperidide; lactam N-8), the Papp at 18 hours, 50 µM in data set [1] (setting [3]) was determined as 0.1 ×10⁻⁶ cm/s. For the same molecule, the microsomal CLint at 1 uM in data set [2] (setting [4]) came to 2 µL/min/mg.

As to `CC[C@H](C)[C@@H]1NC(=O)[C@H](CC(C)C)N(C)C(=O)[C@H]([C@@H](C)O)NC(=O)[C@H](CC(C)C)N(C)C(=O)[C@H](C(C)C)NC(=O)[C@H](Cc2ccccc2)N(C)C(=O)CCN(C)C(=O)C[C@@H](C(=O)N2CCC[C@H]2C(=O)N[C@H](C(=O)N(C)[C@@H](Cc2cccc(Cl)c2)C(=O)N(C)[C@@H](Cc2ccccc2)C(=O)N[C@H](C(=O)N2CCCCC2)[C@@H](C)CC)C(C)C)NC1=O` [DP-926] ([NMeβAla][NMeF]V[NMeL]T[NMeL]IDPV[NMePhe(3-Cl)][NMeF]I-Piperidide; lactam N-8), the Papp at 18 hours, 50 µM in data set [1] (setting [3]) was found to be 0.1 ×10⁻⁶ cm/s. In data set [2] (setting [4]), the microsomal CLint at 1 uM amounted to 53 µL/min/mg.

Turning to `CC[C@H](C)[C@H](NC(=O)[C@H](CC(C)C)N(C)C(=O)[C@H](CC(C)C)N(C)C(=O)[C@H](Cc1cccc(Cl)c1)N(C)C(=O)[C@@H]1CC(=O)N(C)[C@@H](C)C(=O)N[C@@H](C(C)C)C(=O)N(C)[C@@H](Cc2ccccc2)C(=O)N[C@@H]([C@@H](C)O)C(=O)N2CCC[C@H]2C(=O)N(C)[C@@H](Cc2ccccc2)C(=O)N[C@@H](CC(C)C)C(=O)N1)C(=O)N1CCCCC1` [DP-927] ([NMeA]V[NMeF]TP[NMeF]LD[NMePhe(3-Cl)][NMeL][NMeL]I-Piperidide; lactam N-8), the Papp at 18 hours, 50 µM in data set [1] (pH 6.5) was 0.1 ×10⁻⁶ cm/s. Also, the microsomal CLint at 1 uM in data set [2] (human, pH 7.4, CL NADPH(+)) amounted to 5 µL/min/mg.

In the case of `CC[C@H](C)[C@H](NC(=O)[C@H](Cc1ccccc1)N(C)C(=O)[C@H](C)N(C)C(=O)[C@@H](NC(=O)[C@@H]1CC(=O)N[C@@H](C)C(=O)N[C@@H]([C@@H](C)O)C(=O)N(C)[C@@H](CC(C)C)C(=O)N[C@@H](C(C)C)C(=O)N(C)[C@@H](Cc2cccc(Cl)c2)C(=O)N(C)[C@@H](CC(C)C)C(=O)N[C@@H](Cc2ccccc2)C(=O)N1)[C@@H](C)CC)C(=O)N1CCCCC1` [DP-928] (AT[NMeL]V[NMePhe(3-Cl)][NMeL]FDI[NMeA][NMeF]I-Piperidide; lactam N-8), the Papp at 18 hours, 50 µM in data set [1] (setting [3]) came out at 0.1 ×10⁻⁶ cm/s. In data set [2] (setting [4]), the microsomal CLint at 1 uM was 60 µL/min/mg.

On to `CC[C@H](C)[C@H](NC(=O)[C@H](CC(C)C)N(C)C(=O)[C@@H]1CCCN1C(=O)[C@H](Cc1ccccc1)N(C)C(=O)[C@@H]1CC(=O)N[C@H](C(C)C)C(=O)N[C@@H](C)C(=O)N(C)[C@@H](Cc2ccccc2)C(=O)N(C)[C@@H](C)C(=O)N[C@@H](Cc2ccccc2)C(=O)N(C)[C@@H](CC(C)C)C(=O)N[C@@H]([C@@H](C)O)C(=O)N1)C(=O)N1CCCCC1` [DP-929] ([dV]A[NMeF][NMeA]F[NMeL]TD[NMeF]P[NMeL]I-Piperidide; lactam N-8), for which the Papp at 18 hours, 50 µM in data set [1] (setting [3]) amounted to 12 ×10⁻⁶ cm/s. In addition, in data set [2] (setting [4]), the microsomal CLint at 1 uM was 49 µL/min/mg.

For the molecule `CC[C@H](C)[C@H](NC(=O)[C@@H](NC(=O)[C@H](Cc1ccccc1)NC(=O)[C@H](CC(C)C)N(C)C(=O)[C@@H]1CC(=O)N(C)CCC(=O)N(C)[C@@H](C)C(=O)N[C@@H](CC(C)C)C(=O)N[C@@H]([C@@H](C)O)C(=O)N(C)[C@@H](Cc2ccccc2)C(=O)N(C)[C@@H](CC(C)C)C(=O)N(C)[C@@H](Cc2ccccc2)C(=O)N1)C(C)C)C(=O)N1CCCCC1` [DP-930] ([NMeβAla][NMeA]LT[NMeF][NMeL][NMeF]D[NMeL]FVI-Piperidide; lactam N-8), in data set [1] (setting [3]), the Papp at 18 hours, 50 µM was found to be 0.46 ×10⁻⁶ cm/s. In data set [2] (setting [4]), the microsomal CLint at 1 uM came to 168 µL/min/mg.

In the case of `CC[C@H](C)[C@H](NC(=O)[C@H](C)N(C)C(=O)[C@H](CC(C)C)N(C)C(=O)[C@H](CC(C)C)NC(=O)[C@@H]1CC(=O)N[C@@H](Cc2ccccc2)C(=O)N[C@@H]([C@@H](C)CC)C(=O)N(C)[C@@H](CC(C)C)C(=O)N(C)[C@@H](CC(C)C)C(=O)N[C@@H](Cc2ccccc2)C(=O)N[C@@H]([C@@H](C)O)C(=O)N(C)[C@@H](Cc2cccc(Cl)c2)C(=O)N1)C(=O)N1CCCCC1` [DP-931] (FI[NMeL][NMeL]FT[NMePhe(3-Cl)]DL[NMeL][NMeA]I-Piperidide; lactam N-8), the Papp at 18 hours, 50 µM in data set [1] (setting [3]) stood at 0.1 ×10⁻⁶ cm/s. The microsomal CLint at 1 uM in data set [2] (setting [4]) was determined as 12 µL/min/mg.

With `CC[C@H](C)[C@@H]1NC(=O)[C@H](Cc2ccccc2)N(C)C(=O)[C@H](CC(C)C)N(C)C(=O)[C@H](Cc2ccccc2)NC(=O)[C@H](C)N(C)C(=O)[C@H]([C@@H](C)O)NC(=O)[C@H](C(C)C)NC(=O)[C@@H](C(C)C)NC(=O)C[C@@H](C(=O)N(C)[C@@H](Cc2ccccc2)C(=O)N[C@H](C(=O)N(C)[C@@H](C)C(=O)N(C)[C@@H](CC(C)C)C(=O)N[C@H](C(=O)N2CCCCC2)[C@@H](C)CC)C(C)C)NC1=O` [DP-935] ([dV]VT[NMeA]F[NMeL][NMeF]ID[NMeF]V[NMeA][NMeL]I-Piperidide; lactam N-9), the Papp at 18 hours, 50 µM in data set [1] (setting [3]) worked out at 0.1 ×10⁻⁶ cm/s. For the same molecule, the microsomal CLint at 1 uM in data set [2] (setting [4]) stood at 29 µL/min/mg.

Consider `CC[C@H](C)[C@H](NC(=O)[C@H](CC(C)C)N(C)C(=O)[C@@H]1CCCN1C(=O)[C@@H](NC(=O)[C@H](C)N(C)C(=O)[C@@H]1CC(=O)N[C@@H](C)C(=O)N(C)[C@@H](CC(C)C)C(=O)N(C)[C@@H](Cc2cccc(Cl)c2)C(=O)N[C@@H](C(C)C)C(=O)N(C)[C@@H](CC(C)C)C(=O)N(C)[C@@H](CC(C)C)C(=O)N[C@@H]([C@@H](C)O)C(=O)N[C@@H](Cc2ccccc2)C(=O)N1)C(C)C)C(=O)N1CCCCC1` [DP-936] (A[NMeL][NMePhe(3-Cl)]V[NMeL][NMeL]TFD[NMeA]VP[NMeL]I-Piperidide; lactam N-9), for which the Papp at 18 hours, 50 µM in data set [1] (setting [3]) came out at 0.11 ×10⁻⁶ cm/s. Besides, the microsomal CLint at 1 uM in data set [2] (setting [4]) worked out at 29 µL/min/mg.

Consider `CC[C@H](C)[C@H](NC(=O)[C@H](CC(C)C)NC(=O)[C@H](CC(C)C)N(C)C(=O)[C@@H](NC(=O)[C@@H]1CCCN1C(=O)[C@@H]1CC(=O)N(C)CCC(=O)N[C@@H](CC(C)C)C(=O)N(C)[C@@H](CC(C)C)C(=O)N[C@@H]([C@@H](C)O)C(=O)N(C)[C@@H](C)C(=O)N[C@@H]([C@@H](C)CC)C(=O)N(C)[C@@H](CC(C)C)C(=O)N(C)[C@@H](CC(C)C)C(=O)N1)[C@@H](C)CC)C(=O)N1CCCCC1` [DP-937] ([NMeβAla]L[NMeL]T[NMeA]I[NMeL][NMeL]DPI[NMeL]LI-Piperidide; lactam N-9), for which the Papp at 18 hours, 50 µM in data set [1] (setting [3]) was found to be 0.47 ×10⁻⁶ cm/s. Further, the microsomal CLint at 1 uM in data set [2] (setting [4]) came to 164 µL/min/mg.
